Legend:
[1] = tested on: ENA polypeptide antibodies (anti-Sm, anti-Rib, anti-ssA, anti-ssB); assay: Serologic detection of ENA polypeptide antibodies by immunoblotting in serum of UV + LPS lupus model mice; format: in vivo, BALB/c mice; parameters: key to Anti-Rib: (+): positive; (−): negative; key to Anti-Sm / Anti-ssA / Anti-ssB: (+): positive; (−): negative; (++++): intenseintensity; (+++): stronger fluorescent intensity; settings: for Anti-Rib / Anti-Sm / Anti-ssA / Anti-ssB: intragastric; for ENA polypeptide antibodies found positive (FIG. 1): treated 14 days
Procedure: The back of mice was shaved and acutely exposed to Ultraviolet of 2 h/d*3 d, with a distance of 30 cm. After exposure to UV, 2.5 mg/kg of LPS was administrated once by ip, and after 24 h, the model was successfully established; the mice in the normal control group received normal saline via ip. 24 h after injection of LPS (ip), medicines were given to the model mice by intragastric administration. Chlorogenic acid test groups received high, middle, and low doses of medicines, by intragastric administration at a respective dosage of 10 mg/kg*d, 20 mg/kg*d, and 40 mg/kg*d. The positive control group A received 2 mg/kg*d of artesunate by stomach perfusion, while the positive control group B received 1 mg/kg*d of prednisone by stomach perfusion. Mice in the model and normal control group all received 0.4 ml/mouse normal saline by gavage. After 15 days of administration, animals in each group were taken blood by separating eyeballs on days 14, 21, 28, and after cultured in water bath at 37° C. for 1 h, the blood sample was centrifugated at 2000 r/min for 5 min, to draw serum for use. On day 21, after blood collection, animals were sacrificed by dislocation, followed by collection of liver and kidney, and they were placed in fixative solutions of electron microscope and light microscrope, respectively. Serum of mice was diluted at 1:100 with special buffer solution of Shenzhen Hengjia, and then 200 μL of diluted serum was respectively added to the reactive tank with corresponding number, cultured in the incubator at 37° C. for 30 min, and washed with the buffer solution four times, 2 min for each time; 200 μL of diluted biotin goat anti-mouse IgG (1:100) was added, cultured in the incubator at 37° C. for 30 min, and then washed with the buffer solution four times, 2 min for each time; 100 μL of diluted HRP-avidin (1:100) was added, cultured in the incubator at 37° C. for 30 min, and then washed as mentioned-above; reactive solutions A and B were added till appearance of positive bands, then washed with the buffer solution. Compared with the standard bands of ENA polypeptide antibody spectrum in the same kit, if the positive bands appeared at 28/29,13.5 ku polypeptide; 15,16.5,38 kupolypeptide; 52 kupolypeptide and 47/48,45 kupolypeptide, that can be determined as anti-Sm, anti-Rib, anti-ssA, and anti-ssB positive antibody. Serum was diluted with PBS at 1:40, then 20-30 μL of diluted serum was dropped into the scrobiculus of HEp-2 cell sheets, each cell sheet for each group. In the process of dropping serum, it should be noted that the surface of cell sheet can not be touched. After addition of serum, cell sheet was placed in wet box and kept for 30 min at room temperature (25° C.). After 30 min, the cell sheet was taken out, and serum was carefully washed out with PBS, then carefully washed twice with PBS, 5 min for each time; after washing, the remained PBS was removed by special absorbent paper of […] company (In this process, it should be noted that becoming dry of cell substrates will affect the results). 20-30 μL of diluted (PBS, 1:100) FITC goat anti-mouse IgG was added by dropping, and then incubated in wet box at room temperature for 30 min. After washing with PBS, steps were same to above. The remained PBS was removed by absorbent paper, and 1-2 drops of fluorescent mounting media were added to the cell sheet. The cover glass was mounted, observed under Olympus BH-2 universal microscope, and then photographed.

lupus erythematosus = assay: Screening medicines for treatment of lupus erythematosus; settings: screening of extracts and potency constituents; no method given
[2] = tested on: lupus erythematosus model mice (kidney, liver); assay: Triple staining (silver staining) of kidney and liver sections under light microscope, lupus model mice; format: in vivo, BALB/c mice
Procedure: The back of mice was shaved and acutely exposed to Ultraviolet of 2 h/d*3 d, with a distance of 30 cm. After exposure to UV, 2.5 mg/kg of LPS was administrated once by ip, and after 24 h, the model was successfully established; the mice in the normal control group received normal saline via ip. 24 h after injection of LPS (ip), medicines were given to the model mice by intragastric administration. Chlorogenic acid test groups received high, middle, and low doses of medicines, by intragastric administration at a respective dosage of 10 mg/kg*d, 20 mg/kg*d, and 40 mg/kg*d. The positive control group A received 2 mg/kg*d of artesunate by stomach perfusion, while the positive control group B received 1 mg/kg*d of prednisone by stomach perfusion. Mice in the model and normal control group all received 0.4 ml/mouse normal saline by gavage. After 15 days of administration, animals in each group were taken blood by separating eyeballs on days 14, 21, 28, and after cultured in water bath at 37° C. for 1 h, the blood sample was centrifugated at 2000 r/min for 5 min, to draw serum for use. On day 21, after blood collection, animals were sacrificed by dislocation, followed by collection of liver and kidney, and they were placed in fixative solutions of electron microscope and light microscrope, respectively.
[…] The thickness of slice is 3 μm, and at beginning of staining, wax was routinely deprived to water. After oxidation with 0.5% periodic acid, the slice was macerated in hexamine silver fluid for about 2 h (constant temperature 58° C.), washed with distilled water, dyed with hematoxylin for 1 min. After washing with water, the slice was dyed by dropping the ponceau staining solution for 5 min, differentiated with 70% ethanol, dehydrated with gradient ethanol, cleared with xylene, and sealed with neutral gum.

[3] = day 14, chlorogenic acid high dose
[4] = day 14, chlorogenic acid low dose
[5] = day 14, chlorogenic acid middle dose
[6] = day 21, chlorogenic acid high dose
[7] = day 21, chlorogenic acid low dose
[8] = day 21, chlorogenic acid middle dose
[9] = day 28, chlorogenic acid high dose
[10] = day 28, chlorogenic acid low dose
[11] = day 28, chlorogenic acid middle dose
[12] = chlorogenic acid group administrated for 28 days

O=C(/C=C/c1ccc(O)c(O)c1)O[C@@H]1C[C@](O)(C(=O)O)C[C@@H](O)[C@H]1O [Chlorogenic acid, 3-O-caffeoylquinic acid]
Anti-Rib [1, 3]: (+) | Anti-Sm [1, 3]: (+) | Anti-ssA [1, 3]: (+) | Anti-ssB [1, 3]: (+) | Anti-Rib [1, 4]: (+) | Anti-Sm [1, 4]: (+) | Anti-ssA [1, 4]: (+) | Anti-ssB [1, 4]: (+) | Anti-Rib [1, 5]: (+) | Anti-Sm [1, 5]: (+) | Anti-ssA [1, 5]: (+) | Anti-ssB [1, 5]: (+) | Anti-Rib [1, 6]: (+) | Anti-Sm [1, 6]: (+) | Anti-ssA [1, 6]: (+) | Anti-ssB [1, 6]: (+) | Anti-Rib [1, 7]: (+) | Anti-Sm [1, 7]: (+) | Anti-ssA [1, 7]: (+) | Anti-ssB [1, 7]: (+) | Anti-Rib [1, 8]: (+) | Anti-Sm [1, 8]: (+) | Anti-ssA [1, 8]: (+) | Anti-ssB [1, 8]: (+) | Anti-Rib [1, 9]: (−) | Anti-Sm [1, 9]: (+) | Anti-ssA [1, 9]: (−) | Anti-ssB [1, 9]: (−) | Anti-Rib [1, 10]: (+) | Anti-Sm [1, 10]: (+) | Anti-ssA [1, 10]: (+) | Anti-ssB [1, 10]: (+) | Anti-Rib [1, 11]: (−) | Anti-Sm [1, 11]: (+) | Anti-ssA [1, 11]: (+) | Anti-ssB [1, 11]: (+) | ENA polypeptide antibodies found positive (FIG. 1) ([1]; high dose of chlorogenic acid): anti-Sm, anti-ssA and anti-ssB bodies are positive | ENA polypeptide antibodies found positive (FIG. 1) ([1]; low dose of chlorogenic acid): anti-Sm, anti-ssA and anti-ssB bodies are positive | ENA polypeptide antibodies found positive (FIG. 1) ([1]; middle dose of chlorogenic acid): anti-Sm, anti-Rib, anti-ssA and anti-ssB bodies are positive | inhibition on lupus erythematosus (lupus erythematosus): more obvious inhibition | staining of hepatic blood vessel basilar membrane [2, 12]: somewhat recovered | thickening degree of renal glomerular and tubular basilar membrane [2, 12]: reduced compared with normal mice | basilar membrane of renal glomerulus and tubule, pathological section ([2]; chlorogenic acid, 21 days): increased thickness compared with normal mice | pathological section of kidney: conditions versus model group ([2]; chlorogenic acid, 21 days, especially high dose group): better than the model group | thickening of renal glomerulus and tubular basement membrane (FIG. 8) ([2]; high dose of chlorogenic acid, 28 days, ×50): thickening degree of renal glomerulus and tubular basement membrane reduces
